Laboratory results reported in patent US5747466A, “3-deoxy-3-descladinose derivatives of erythromycins A and B” (Abbott Laboratories, priority 1996, dated 1998).
Where two headings read alike, the source gives them in different places.

Columns and labels:
Assay in all cases: In vitro antibacterial activity (MIC), agar dilution
[1] = test system: MYCOBACTERIUM SMEGMATIS ATCC 114; type: cell-based; details: M. smegmatis ATCC 114; BHI agar, 35-37 °C, 20-24 h
[2] = test system: ESCHERICHIA COLI H560; type: cell-based; details: E. coli H560; BHI agar, 35-37 °C, 20-24 h
[3] = test system: ESCHERICHIA COLI KNK 437; type: cell-based
[4] = test system: PSEUDOMONAS AERUGINOSA DPHD-5263; type: cell-based; details: P. aeruginosa DPHD-5263; BHI agar, 35-37 °C, 20-24 h
[5] = test system: STREPTOCOCCUS BOVIS A-5169; type: cell-based; details: S. bovis A-5169; BHI agar, 35-37 °C, 20-24 h
[6] = test system: STAPHYLOCOCCUS AUREUS ATCC 6538P; type: cell-based; details: S. aureus ATCC 6538P; BHI agar, 35-37 °C, 20-24 h
[7] = test system: STAPHYLOCOCCUS EPIDERMIDIS 3519; type: cell-based
[8] = test system: STAPHYLOCOCCUS AUREUS CMX 642A; type: cell-based; details: S. aureus CMX 642A; BHI agar, 35-37 °C, 20-24 h
[9] = test system: STR[…] 508; type: cell-based, Streptococcus agalactiae; details: S. agalactiae CMX 508; BHI agar, 35-37 °C, 20-24 h
Experimental: (§1) Representative compounds of the present invention were assayed in vitro for antibacterial activity as follows: Twelve petri dishes containing successive aqueous dilutions of the test compound mixed with 10 mL of sterilized Brain Heart Infusion (BHI) agar (Difco 0418-01-5) were prepared. Each plate was inoculated with 1:100 (or 1:10 for slow-growing strains, such as Micrococcus and Streptococcus) dilutions of up to 32 different microorganisms, using a Steers replicator block. The inoculated plates were incubated at 35°-37° C. for 20 to 24 hours. In addition, a control plate, using BHI agar containing no test compound, was prepared and incubated at the beginning and end of each test.
(§2) An additional plate containing a compound having known susceptibility patterns for the organisms being tested and belonging to the same antibiotic class as the test compound was also prepared and incubated as a further control, as well as to provide test-to-test comparability. Erythromycin A was used for this purpose.
(§3) After incubation, each plate was examined. The minimum inhibitory concentration (MIC) was defined as the lowest concentration of drug yielding no growth, a slight haze, or sparsely isolated colonies on the inoculum spot as compared to the growth control.

[10] = test system: KLEBSIELLA PNEUMONIAE ATCC 8045; type: cell-based; details: K. pneumoniae ATCC 8045; BHI agar, 35-37 °C, 20-24 h
[11] = test system: EN[…] ATCC 8043; type: cell-based, Enterococcus faecium; details: E. faecium ATCC 8043; BHI agar, 35-37 °C, 20-24 h
Experimental: as §1, §2, §3

[12] = test system: PSEUDOMONAS AERUGINOSA K799/61; type: cell-based; details: P. aeruginosa K799/61; BHI agar, 35-37 °C, 20-24 h
[13] = test system: PSEUDOMONAS AERUGINOSA K799/WT; type: cell-based; details: P. aeruginosa K799/WT; BHI agar, 35-37 °C, 20-24 h
[14] = test system: ESCHERICHIA COLI DC-2; type: cell-based; details: E. coli DC-2; BHI agar, 35-37 °C, 20-24 h
[15] = test system: STREPTOCOCCUS PYOGENES EES61; type: cell-based; details: S. pyogenes EES61; BHI agar, 35-37 °C, 20-24 h
[16] = test system: NOCARDIA ARSTEROIDES ATCC 9970; type: cell-based; details: Nocardia ATCC 9970; BHI agar, 35-37 °C, 20-24 h
[17] = test system: PSEUDOMONAS CEPACIA 296I; type: cell-based; details: P. cepacia 296I; BHI agar, 35-37 °C, 20-24 h
[18] = test system: STAPHYLOCOCCUS AUREUS NCTC10649M; type: cell-based; details: S. aureus NCTC10649M; BHI agar, 35-37 °C, 20-24 h
[19] = test system: STREPTOCOCCUS PYOGENES 930; type: cell-based; details: S. pyogenes 930; BHI agar, 35-37 °C, 20-24 h
[20] = test system: STAPHYLOCOCCUS AUREUS A5177; type: cell-based; details: S. aureus A5177; BHI agar, 35-37 °C, 20-24 h
[21] = test system: STAPHYLOCOCCUS AUREUS CMX 553; type: cell-based; details: S. aureus CMX 553; BHI agar, 35-37 °C, 20-24 h
[22] = test system: ESCHERICHIA COLI JUHL; type: cell-based
[23] = test system: ENTEROBACTER AEROGENES ATCC 13048; type: cell-based; details: E. aerogenes ATCC 13048; BHI agar, 35-37 °C, 20-24 h
[24] = test system: STAPHYLOCOCCUS AUREUS A-5278; type: cell-based; details: S. aureus A-5278; BHI agar, 35-37 °C, 20-24 h
[25] = test system: PSEUDOMONAS AERUGINOSA 5007; type: cell-based; details: P. aeruginosa 5007; BHI agar, 35-37 °C, 20-24 h
[26] = E. coli KNK 437, BHI agar, 35-37 °C, 20-24 h
[27] = S. epidermidis 3519, BHI agar, 35-37 °C, 20-24 h
[28] = E. coli JUHL, BHI agar, 35-37 °C, 20-24 h

CC[C@H]1OC(=O)[C@H](C)[C@@H](O[C@H]2C[C@@](C)(OC)[C@@H](O)[C@H](C)O2)[C@H](C)[C@@H](O[C@@H]2O[C@H](C)C[C@H](N(C)C)[C@H]2O)[C@](C)(O)C[C@@H](C)C(=O)[C@H](C)[C@@H](O)[C@]1(C)O [Ery A, Erythromycin A, reference compound]
minimum inhibitory concentration (MIC) [1]: 25 | minimum inhibitory concentration (MIC) [2]: 25 | minimum inhibitory concentration (MIC) [3]: 100 | minimum inhibitory concentration (MIC) [4]: 100 | minimum inhibitory concentration (MIC) [5]: 0.02 | minimum inhibitory concentration (MIC) [6]: 0.1 | minimum inhibitory concentration (MIC) [7]: 0.1 | minimum inhibitory concentration (MIC) [8]: 0.2 | minimum inhibitory concentration (MIC) [9]: 0.02 | minimum inhibitory concentration (MIC) [10]: 25 | minimum inhibitory concentration (MIC) [11]: 0.05 | minimum inhibitory concentration (MIC) [12]: 1.56 | minimum inhibitory concentration (MIC) [13]: 100 | minimum inhibitory concentration (MIC) [14]: 100 | minimum inhibitory concentration (MIC) [15]: 0.02 | minimum inhibitory concentration (MIC) [16]: 0.05 | minimum inhibitory concentration (MIC) [17]: > 100 | minimum inhibitory concentration (MIC) [18]: 0.2 | minimum inhibitory concentration (MIC) [19]: > 100 | minimum inhibitory concentration (MIC) [20]: 1.56 | minimum inhibitory concentration (MIC) [21]: 0.2 | minimum inhibitory concentration (MIC) [22]: 50 | minimum inhibitory concentration (MIC) [23]: > 100 | minimum inhibitory concentration (MIC) [24]: > 100 | minimum inhibitory concentration (MIC) [25]: > 100

CC[C@H]1OC(=O)[C@H](C)C[C@H](C)[C@@H](O[C@@H]2O[C@H](C)C[C@H](N(C)C)[C@H]2O)[C@](C)(OC)C[C@@H](C)C(=O)[C@H](C)[C@@H](O)[C@]1(C)O [Ex. 1]
minimum inhibitory concentration (MIC) [1]: 100 | minimum inhibitory concentration (MIC) [2]: > 100 | minimum inhibitory concentration (MIC) [3, 26]: > 100 | minimum inhibitory concentration (MIC) [4]: > 100 | minimum inhibitory concentration (MIC) [5]: 0.78 | minimum inhibitory concentration (MIC) [6]: 25 | minimum inhibitory concentration (MIC) [7, 27]: 50 | minimum inhibitory concentration (MIC) [8]: 25 | minimum inhibitory concentration (MIC) [9]: 3.1 | minimum inhibitory concentration (MIC) [10]: > 100 | minimum inhibitory concentration (MIC) [11]: 25 | minimum inhibitory concentration (MIC) [12]: > 100 | minimum inhibitory concentration (MIC) [13]: > 100 | minimum inhibitory concentration (MIC) [14]: > 100 | minimum inhibitory concentration (MIC) [15]: 1.56 | minimum inhibitory concentration (MIC) [16]: 1.56 | minimum inhibitory concentration (MIC) [17]: > 100 | minimum inhibitory concentration (MIC) [18]: 6.2 | minimum inhibitory concentration (MIC) [19]: > 100 | minimum inhibitory concentration (MIC) [20]: 25 | minimum inhibitory concentration (MIC) [21]: 25 | minimum inhibitory concentration (MIC) [22, 28]: > 100 | minimum inhibitory concentration (MIC) [23]: > 100 | minimum inhibitory concentration (MIC) [24]: > 100 | minimum inhibitory concentration (MIC) [25]: > 100

CC[C@H]1OC(=O)[C@H](C)C[C@H](C)[C@@H](O[C@@H]2O[C@H](C)C[C@H](N(C)C)[C@H]2O)[C@](C)(OC)C[C@@H](C)C(=O)[C@H](C)[C@H]2OC(=O)O[C@@]21C [Ex. 3]
minimum inhibitory concentration (MIC) [1]: 3.1 | minimum inhibitory concentration (MIC) [2]: > 100 | minimum inhibitory concentration (MIC) [3, 26]: > 100 | minimum inhibitory concentration (MIC) [4]: > 100 | minimum inhibitory concentration (MIC) [5]: 0.2 | minimum inhibitory concentration (MIC) [6]: 6.2 | minimum inhibitory concentration (MIC) [7, 27]: 6.2 | minimum inhibitory concentration (MIC) [8]: 3.1 | minimum inhibitory concentration (MIC) [9]: 0.2 | minimum inhibitory concentration (MIC) [10]: > 100 | minimum inhibitory concentration (MIC) [11]: 0.78 | minimum inhibitory concentration (MIC) [12]: > 100 | minimum inhibitory concentration (MIC) [13]: > 100 | minimum inhibitory concentration (MIC) [14]: > 100 | minimum inhibitory concentration (MIC) [15]: 0.2 | minimum inhibitory concentration (MIC) [16]: 0.2 | minimum inhibitory concentration (MIC) [17]: > 100 | minimum inhibitory concentration (MIC) [18]: 6.2 | minimum inhibitory concentration (MIC) [19]: > 100 | minimum inhibitory concentration (MIC) [20]: 3.1 | minimum inhibitory concentration (MIC) [21]: 3.1 | minimum inhibitory concentration (MIC) [22, 28]: > 100 | minimum inhibitory concentration (MIC) [23]: > 100 | minimum inhibitory concentration (MIC) [24]: > 100 | minimum inhibitory concentration (MIC) [25]: > 100

CC[C@H]1OC(=O)[C@H](C)C[C@H](C)[C@@H](O[C@@H]2O[C@H](C)C[C@H](N(C)C)[C@H]2O)[C@](C)(OC)C[C@@H](C)C(=NOCOCCOC)[C@H](C)[C@@H](O)[C@]1(C)O [Ex. 8]
minimum inhibitory concentration (MIC) [1]: 25 | minimum inhibitory concentration (MIC) [2]: 25 | minimum inhibitory concentration (MIC) [3, 26]: 100 | minimum inhibitory concentration (MIC) [4]: 100 | minimum inhibitory concentration (MIC) [5]: 0.02 | minimum inhibitory concentration (MIC) [6]: 0.1 | minimum inhibitory concentration (MIC) [7, 27]: 0.1 | minimum inhibitory concentration (MIC) [8]: 0.2 | minimum inhibitory concentration (MIC) [9]: 0.02 | minimum inhibitory concentration (MIC) [10]: 25 | minimum inhibitory concentration (MIC) [11]: 0.05 | minimum inhibitory concentration (MIC) [12]: 1.56 | minimum inhibitory concentration (MIC) [13]: 100 | minimum inhibitory concentration (MIC) [14]: 100 | minimum inhibitory concentration (MIC) [15]: 0.02 | minimum inhibitory concentration (MIC) [16]: 0.05 | minimum inhibitory concentration (MIC) [17]: > 100 | minimum inhibitory concentration (MIC) [18]: 0.2 | minimum inhibitory concentration (MIC) [19]: > 100 | minimum inhibitory concentration (MIC) [20]: 1.56 | minimum inhibitory concentration (MIC) [21]: 0.2 | minimum inhibitory concentration (MIC) [22, 28]: 50 | minimum inhibitory concentration (MIC) [23]: > 100 | minimum inhibitory concentration (MIC) [24]: > 100 | minimum inhibitory concentration (MIC) [25]: > 100
